Measurements: US20080213363A1, “Methods and compositions for delivering 5-HT3 antagonists across the oral mucosa” (priority 2003, published 2008)
Read-outs that look alike come from different tables or passages of the source.

Format: in vitro ADME
Conditions: PAMPA
Source text: Topics Med. Chem. 2001, 1, 277-351.

## Cc1nccn1CC1CCc2c(c3ccccc3n2C)C1=O.Cl (stereo not drawn) [Ondansetron HCl, ondansetron HCl]
pH 5.4
  Papp: 0.32 ×10⁻⁶ cm/s
pH 7.4
  Papp: 1.3 ×10⁻⁶ cm/s
pH 8.5
  Papp: 3.25 ×10⁻⁶ cm/s
